Data from PubChem BioAssay AID602273 (Broad Institute, 2012).
The source made the active and inactive calls. How the calls were made is not given here.

Assay: rescue of alpha-synuclein yeast toxicity, dose response, S. cerevisiae, plate reader, cherry-pick (AID 602273)
Details: S. cerevisiae alpha-synuclein toxicity rescue, OD600 growth, 24 h

SMILES	growth rescue activity (at 26 µM (top of the series))	growth rescue activity (at 12 µM (top of the series))
CCC(=O)Nc1cccc(C(=O)/C=C/c2ccc(F)cc2)c1	-9.73% (inactive)	–
O=C(/C=C/Sc1ccccc1)c1ccccc1	3.99% (inactive)	–
O=C1C2CC=CCC2C(=O)N1Cc1nnc(-c2ccc(Cl)cc2)o1 (stereo not given)	-2.43% (inactive)	–
Cc1ccc(N2C(=O)NC(=O)/C(=C\C=C\c3ccco3)C2=O)cc1C	1.5% (inactive)	–
Cc1nc(SCCOc2ccc(F)cc2)c2ccccc2n1	-1.07% (inactive)	–
COc1ccc(C(=O)n2nc(C)cc2Nc2ccccc2)cc1	2.84% (inactive)	–
O=c1[nH]c2c(s1)C=Nc1ccccc1N2	4.6% (inactive)	–
COC(=O)C1CCN(C(=O)COC(=O)c2ccc(OC)c(S(=O)(=O)N3CCCc4ccccc43)c2)CC1	-1.07% (inactive)	–
CCOc1cccc(/C=C/c2ccc3cccc(O)c3n2)c1OC	-2.49% (inactive)	–
CC(=O)Cc1cc(O)c2ccccc2c1OC(=O)c1ccccc1	-0.443% (inactive)	–
Cc1ccc(C2=Nc3ccccc3NC(C)(c3ccc(C)o3)C2)o1 (stereo not given)	0.617% (inactive)	–
O=C(Cc1cccs1)NCc1ccccc1Br	-5.14% (inactive)	–
Cc1nc2ccccc2nc(C)c1=NOCc1ccccc1Cl	0.053% (inactive)	–
N#Cc1ccc(OCCN2CCc3ccccc3C2)cc1	4.6% (inactive)	–
O=C(CCC1CCCN(C(=O)c2ccc3cc[nH]c3c2)C1)NCc1ccc(F)c(F)c1 (stereo not given)	-2.77% (inactive)	–
Cc1ccc(/C=C2\Oc3cc(OC(=O)N4CCOCC4)ccc3C2=O)cc1	-7.43% (inactive)	–
CCOC(=O)C1=NN(C(=O)c2ccccc2)C(O)(c2ccc(C)cc2)C1 (stereo not given)	10.9% (inactive)	–
CCn1c(SCC(=O)c2ccc(Cl)cc2)nnc1-c1ccoc1C	2.33% (inactive)	–
COc1ccc(CCNc2oc(-c3ccccc3OC)nc2C#N)cc1	1.38% (inactive)	–
CC(=O)Nc1cccc(NC(=O)CSc2ncc(C(=O)Nc3ccccc3)c(=O)n2C)c1	-9.48% (inactive)	–
Brc1cnc2nc(SC/C=C/c3ccccc3)[nH]c2c1	0.58% (inactive)	–
CC(C)(C)c1ccc(COc2ccsc2C(=O)O)cc1	-21.6% (inactive)	–
COc1ccc(/C=C2/SC(=O)N(CCNC(=O)C3COc4ccccc4O3)C2=O)cc1 (stereo not given)	5.56% (inactive)	–
CCN1C(=O)CC(N2CCN(c3ccc(C(=O)c4ccccc4)cc3)CC2)C1=O (stereo not given)	-0.853% (inactive)	–

SMILES	growth rescue activity (at 26 µM (top of the series))	growth rescue activity (at 12 µM (top of the series))
CC(=O)c1ccc(NC(=O)CCCN2C(=O)/C(=C/C(C)=C/c3ccccc3)SC2=S)cc1	-5.11% (inactive)	–
Cc1ccc(CN(C)C(=O)C2CCC(=O)N(CCc3ccccc3)C2)o1 (stereo not given)	1.41% (inactive)	–
COc1ccc(-c2nc3scc(-c4ccccc4)n3n2)cc1	-0.958% (inactive)	–
CCOC(=O)Nc1ccc(C(=O)Oc2ccccc2)c(O)c1	-4.86% (inactive)	–
O=C1NCC2=C1C(c1ccc(Br)cc1)Nc1ccccc1N2 (stereo not given)	-8.45% (inactive)	–
O=C(O)CSc1nc2ccccc2nc1Cc1ccccc1F	5.3% (inactive)	–
CN(Cc1ccccc1)C(=O)c1cc(-c2ccc(Br)cc2)on1	-17.2% (inactive)	–
CC(=O)N1N=C(c2ccccc2)CC1c1ccccc1[N+](=O)[O-] (stereo not given)	2.51% (inactive)	–
O=C(CC12CCC(CC1)C2)NCc1ccc2c(c1)OCO2	2.83% (inactive)	–
Cc1[nH]n(-c2ccccc2)c(=O)c1C=NCCc1ccccc1	5.9% (inactive)	–
Cc1cc(C(=O)N2CCN(c3ccccn3)CC2)c(C)o1	-0.518% (inactive)	–
COc1ccc2c(c1OC)C(=O)OC2Nc1nc(-c2ccccc2)cs1 (stereo not given)	3.17% (inactive)	–
Cc1ccc(C(=O)CNc2ccc(Cl)cc2)cc1	5.52% (inactive)	–
Cc1c(/C=N/NC(=O)c2ccc(Br)o2)cnn1C	-2.43% (inactive)	–
O=c1[nH]n(CC2COC3(CCCCC3)O2)c(=O)c2ccccc12 (stereo not given)	-3.22% (inactive)	–
CC1CC(C)(C)N(C(=O)NC2CCCCC2)c2ccccc21 (stereo not given)	12.6% (inactive)	–
O=c1[nH]c2ccccc2n1CCC1CCCCC1	8.15% (inactive)	–
O=C(OCc1csc(-c2ccccc2)n1)c1cccs1	0.967% (inactive)	–
COc1ccccc1C(=O)CSc1nnc(-c2ccco2)o1	-9.45% (inactive)	–
Cc1ccc(CNC(=O)CSc2ccsc2[N+](=O)[O-])cc1	2.48% (inactive)	–
CC(C)(CNC(=O)/C=C/c1ccc(F)cc1)CNC(=O)/C=C/c1ccc(F)cc1	0.36% (inactive)	–
Cn1cc([N+](=O)[O-])c(C(=O)Nc2ccc(-c3nc4ccccc4[nH]3)cc2)n1	-1.83% (inactive)	–
CCN(CC)CCCNC(=O)CSc1c2c(nc3cc(Cl)ccc13)CCCC2	3.73% (inactive)	–
COc1ccc(NC(=O)COC(=O)/C=C/C(=O)OCC(=O)Nc2ccc(OC)c(Cl)c2)cc1Cl	3.29% (inactive)	–

SMILES	growth rescue activity (at 26 µM (top of the series))	growth rescue activity (at 12 µM (top of the series))
Cc1ccc(N2C(=O)SC(N(CC(=O)O)c3ccc(C)cc3)C2=O)cc1 (stereo not given)	-2.3% (inactive)	–
CC(C)(C)c1cc(NC(=O)CCSc2nnc3ccccn23)cc(C(C)(C)C)c1	3.55% (inactive)	–
Cc1cccc(NCc2nc3ccccc3n2C)c1	-1.89% (inactive)	–
c1ccc2c(Nc3nnc(-c4ccncc4)s3)cccc2c1	-9.03% (inactive)	–
O=C(CSc1nnc(-c2c[nH]c3ccccc23)n1-c1ccc(F)cc1)NCc1ccco1	0.096% (inactive)	–
O=C(O)C1CCCCC1C(=O)Nc1ccc2c(c1)CCC2 (stereo not given)	-2.7% (inactive)	–
CCc1c(C)sc(NC(=O)c2ccc(Br)o2)c1C(=O)OC	5.35% (inactive)	–
CC(C)OC(=O)c1ccc(COc2ccc3ccc(=O)oc3c2)o1	2.08% (inactive)	–
COc1ccc(S(=O)(=O)n2nc(OC(=O)c3ccccc3Br)cc2N)cc1	-9.27% (inactive)	–
C=CCN1C(=O)C(Cc2ccc(OCC)cc2)SC1=Nc1ccc(C(=O)O)cc1 (stereo not given)	18.5% (inactive)	–
O=C(CSc1ccc(Cl)cc1)N1CCN(c2c(Cl)cccc2[N+](=O)[O-])CC1	-19.7% (inactive)	–
CCCSc1nnc(Sc2nnnn2-c2ccccc2)s1	4.13% (inactive)	–
CC(=O)c1cccc(N(CC(=O)Nc2ccc(F)cc2F)S(C)(=O)=O)c1	2.96% (inactive)	–
O=C(Nc1ccc2c(c1)C(=O)OC2)c1ccc(Cl)cc1	-1.79% (inactive)	–
Cc1[nH]c2ccccc2c1/C=C(\C#N)C(=O)NCC1CCCO1 (stereo not given)	4.73% (inactive)	–
CCOC(=O)C1(Cc2ccc(OC)cc2)CCN(C(=O)c2cc3ccccc3[nH]2)CC1	1.19% (inactive)	–
O=C(NC1CCSc2ccccc21)c1ccccc1Cl (stereo not given)	-4.11% (inactive)	–
Cc1cc(C)n(CC(O)COc2ccc(Cl)cc2Cl)n1 (stereo not given)	9.05% (inactive)	–
CC(OC(=O)/C=C/c1ccc2ccccc2n1)C(=O)NCc1ccccc1 (stereo not given)	3.64% (inactive)	–
O=C(O)CC1=C(Nc2ccccc2)C(=O)N(c2ccccc2)C1c1ccc(Cl)cc1 (stereo not given)	7.05% (inactive)	–
CCOC(=O)c1c(C)c(C(=O)Nc2ccc3c(c2)OCO3)c(C)n1C	2.62% (inactive)	–
Cc1ccc(O)c(CNc2nccs2)c1	12% (inactive)	–
C[C@H](NC(=O)[C@@H]1CSC2c3ccccc3C(=O)N21)C(=O)NCCc1ccccc1 (stereo not given in full)	-5.08% (inactive)	–
c1ccc(N2CC3CCc4ccccc4C3=N2)cc1 (stereo not given)	11.6% (inactive)	–

SMILES	growth rescue activity (at 26 µM (top of the series))	growth rescue activity (at 12 µM (top of the series))
CCC1(C)N=C(N)Nc2nc3cc(C)c(C)cc3n21 (stereo not given)	-2.62% (inactive)	–
CC1(C)CC(=O)C(=Cc2cn(-c3ccccc3)nc2-c2ccccc2)C(=O)C1	1.64% (inactive)	–
Cc1cccc(-c2cc(C(=O)Nc3ccncc3)c3ccccc3n2)c1	1.56% (inactive)	–
O=C(NC1C(=O)NNC1c1ccccc1)c1ccccc1 (stereo not given)	–	8.13% (inactive)
CCN(CC)CCn1c2ccccc2c2nc3ccc([N+](=O)[O-])cc3cc21	0.822% (inactive)	–
COC(=O)[C@@H](Cc1c[nH]c2ccccc12)NC(=O)c1ccc2c(c1)OCO2	0.758% (inactive)	–
CCOC(=O)CC(=O)CSCC(=O)Nc1ccc(C)cc1	-1.13% (inactive)	–
Nc1ccc(Sc2cnn(-c3ccccc3)c(=O)c2Cl)cc1	1.77% (inactive)	–
O=C1NC(=O)[C@]2(Cc3ccccc3N3CCN(c4ccccc4)CC32)C(=O)N1Cc1ccccc1 (stereo not given in full)	3.15% (inactive)	–
COc1cccc(-c2nnc(SCc3nc4ccccc4[nH]3)n2N)c1	1.34% (inactive)	–
Cc1cc(C)nc(S/C=C/C(=O)c2ccccc2F)n1	1.06% (inactive)	–
Oc1[nH]c(N=C2N=c3ccccc3=N2)c2ccccc12	-26.4% (inactive)	–
C=CCn1c(C)cc(C(=O)CSc2nc(N)cc(N)n2)c1C	0.814% (inactive)	–
O=C(NCCN1Cc2ccccc2C1=O)c1cccs1	-6.05% (inactive)	–
COc1ccc2cc(/C=C/C(=O)N3CCN(CC(=O)N4CCCCCC4)CC3)ccc2c1	-2.63% (inactive)	–
COc1ccc(C(c2c(O)ccc3ccccc23)N2CCOCC2)c(OC)c1 (stereo not given)	-24.5% (inactive)	–
Nc1nnc(SCc2c(F)cccc2Cl)s1	4.49% (inactive)	–
Cc1cc(-c2nnc(CCC(=O)N(C)Cc3cccc4ccccc34)o2)no1	8.5% (inactive)	–
CCOC(=S)SCC(=O)Nc1nc(C)c(C)s1	0.308% (inactive)	–
Cn1c(=O)c(/C=C/c2ccc(F)cc2)nc2ccccc21	8.65% (inactive)	–
CC(C)CC(=O)Nc1ccc(N2CCOCC2)cc1	3.83% (inactive)	–
Cc1ccc(-n2cc(CNCCN3CCOC3=O)c(-c3cccc(C)c3)n2)cc1	0.352% (inactive)	–
C/C(Cn1cnc([N+](=O)[O-])n1)=N\NC(=O)c1ccccc1F	-2.85% (inactive)	–
